Source: patent publication US20260027258A1, “Antimicrobial Compositions” (Matoke Holdings Limited, priority 2022, published 2026)
Converted amounts (≈) assume the structure as drawn. One block for each compound: values may come before it.

Key:
C. glabrata = assay: Yeast susceptibility testing (EUCAST E.DEF 7.3.2 broth microdilution), C. glabrata; format: cell-based; details: Nakaseomyces glabratus, C. glabrata isolates (n=8), 24 hours read, MIC = growth inhibited by ≥50% (Amphotericin ≥90%)
Description: (§1) AST was used to determine a Minimum Inhibitory Concentration (MIC) value for each antifungal agent on each strain of Candida. Three comparator drugs were also tested. This allowed the effectiveness of RO-101 gel to be compared to common antifungal drugs often used to treat VVC. Antifungal agents and their concentrations were as follows: RO-101 gel (1×, 2×, 10×, 20×: 1×=0.005%, 2×=0.01%, 10×=0.05% and 20×=0.1% Gox) (1 to 500 mg/L), SurgihoneyRO (1 to 500 mg/L), RO-101 gel 0% negative control (0% Gox) (1 to 500 mg/L), Fluconazole (0.125 to 64 mg/L), Itraconazole (0.015 to 8 mg/L) and Amphotericin (0.015 to 8 mg/L). The EUCAST E.DEF 7.3.2 (EUCAST, 2022a) method for yeast susceptibility testing was followed where possible.
(§2) Stock solutions of drugs were prepared with RPMI 1640 medium with 2% glucose. This was prepared by dissolving 20.8 g of RPMI 1640 powder (Sigma, Cat. No. R-6504), 69.1 g of morpholinopropanesulfonic acid (MOPS) (Melford, Cat. No. B2003) and 36 g of glucose (Sigma, Cat. No. G7528) in 800 ml of pharmacy water (Appleton Woods). 10M sodium hydroxide (Sigma, S8045) was added to adjust the pH to 7, and then the RPMI was filter sterilised. De Man, Rogosa & Sharpe (MRS) broth was used to grow the Lactobacillus isolates. MRS broth was prepared by dissolving 51 g of MRS powder (Sigma, 69966) in 1 litre of pharmacy water. 1 ml of Tween 80 (Sigma, P8074) was then added. The mixture was then sterilized by autoclaving at 121° C. for 15 minutes.
(§3) All yeast isolates selected were grown from high vaginal swab samples and were of the Candida genus. Species chosen included C. albicans (n=5), C. glabrata (n=8), C. krusei (n=4), C. tropicalis (n=3) and C. parapsilosis (n=4). These isolates were identified to a species level by testing for the presence of a germ tube, biochemical testing, what temperature the isolate grew in, the colour when streaked on chrome agar, and in some cases the isolates DNA was sequenced.
(§4) The isolates were streaked for single colonies on a SAB plate, using a sterile metal loop. They were then incubated at 35° C. for 48 hours prior to susceptibility testing. […]

[1] = system: strains of Candida causing VVC; assay: Yeast susceptibility testing, all Candida species tested (overall comparisons); format: cell-based; details: versus all of the gel concentrations
Description: as §1
as §2, with “The mixture was then sterilized by autoclaving at 121° C. for 15 minutes.” left out

C. albicans = assay: Yeast susceptibility testing (EUCAST E.DEF 7.3.2 broth microdilution), C. albicans; format: cell-based; details: Candida albicans; C. albicans isolates (n=5); 24 hours read; MIC = growth inhibited by ≥50% (Amphotericin ≥90%)
Description: as §1
as §2, with “The mixture was then sterilized by autoclaving at 121° C. for 15 minutes.” left out

[2] = at 20° C. and 1 atm; cited from earlier work
C. krusei = assay: Yeast susceptibility testing (EUCAST E.DEF 7.3.2 broth microdilution), C. krusei; format: cell-based; details: Pichia kudriavzevii, C. krusei isolates (n=4), 24 hours read, MIC = growth inhibited by ≥50%
Description: as §1, §2, §3, §4

C. parapsilosis = assay: Yeast susceptibility testing (EUCAST E.DEF 7.3.2 broth microdilution), C. parapsilosis; format: cell-based; details: Lodderomyces parapsilosis, C. parapsilosis isolates (n=4), 24 hours read, MIC = growth inhibited by ≥50%
Description: as §1, §2, §3, §4

C. tropicalis = assay: Yeast susceptibility testing (EUCAST E.DEF 7.3.2 broth microdilution), C. tropicalis; format: cell-based; details: Candida tropicalis, C. tropicalis isolates (n=3), 24 hours read, MIC = growth inhibited by ≥50%
Description: as §1
as §2, with “The mixture was then sterilized by autoclaving at 121° C. for 15 minutes.” left out

MIC50 (C. glabrata): 0.0625 µg/mL (≈ 0.0676 µM) | MIC90 (C. glabrata): 0.125 µg/mL (≈ 0.135 µM) | MIC (C. glabrata; read-out: MIC geometric mean): 0.081 µg/mL (≈ 0.0877 µM) | MIC50 (C. albicans): 0.0625 µg/mL (≈ 0.0676 µM) | MIC90 (C. albicans): 0.0625 µg/mL (≈ 0.0676 µM)
SMILES: C[C@@H]1[C@H](O)[C@@H](C)/C=C/C=C/C=C/C=C/C=C/C=C/C=C/[C@H](O[C@@H]2O[C@H](C)[C@@H](O)[C@H](N)[C@@H]2O)C[C@@H]2O[C@](O)(C[C@@H](O)C[C@@H](O)[C@H](O)CC[C@@H](O)C[C@@H](O)CC(=O)O[C@H]1C)C[C@H](O)[C@H]2C(=O)O [Amphotericin]
MIC50, MIC90 and geometric means in comparison with RO-101 Gel [1]: lower MIC50, MIC90 and geometric means than all of the gel concentrations

SMILES: O=C(CO)[C@@H](O)[C@H](O)[C@H](O)CO [Fructose]
solubility [2]: about 375 g/100 g water

MIC50 (C. krusei): 0.125 µg/mL (≈ 0.177 µM) | MIC90 (C. krusei): 0.25 µg/mL (≈ 0.354 µM) | MIC (C. krusei; read-out: MIC geometric mean): 0.177 µg/mL (≈ 0.251 µM) | MIC50 (C. parapsilosis): 0.015 µg/mL (≈ 0.0213 µM) | MIC90 (C. parapsilosis): 0.125 µg/mL (≈ 0.177 µM) | MIC (C. parapsilosis; read-out: MIC geometric mean): 0.025 µg/mL (≈ 0.0354 µM) | MIC90 (C. tropicalis): 0.0625 µg/mL (≈ 0.0886 µM) | MIC (C. tropicalis; read-out: MIC geometric mean): 0.031 µg/mL (≈ 0.0439 µM)
SMILES: CCC(C)n1ncn(-c2ccc(N3CCN(c4ccc(OCC5COC(Cn6cncn6)(c6ccc(Cl)cc6Cl)O5)cc4)CC3)cc2)c1=O (stereo not drawn) [Itraconazole]
